According to patent publication US20220257664A1, “METHOD FOR REGULATION OF SELECTIVE DIFFERENTIATION OF MUSCULOSKELETAL STEM CELLS” (CELLATOZ THERAPEUTICS, INC., priority 2019, published 2022):

Key:
hMSSCs = test: Induction of selective differentiation of hMSSCs transplanted into mouse; type: in vivo; conditions: mixed with heparin, transplanted into subcutaneous tissue of mouse; FIG. 8
Experimental: In order to measure the possibility of selective differentiation of hMSSCs, hMSSCs were transplanted into the kidney (kidney capsule) or subcutaneous tissue of Balb/c nude mouse by pretreating with various growth factors such as connective tissue growth factor, transforming growth factor, insulin, fibroblast growth factor, etc. and then preparing into a cell aggregate (4×10^5 cells) or mixing with a cell carrier. 3-6 weeks after the transplantation, tissue was analyzed after removing the transplanted cells.
For investigation of the selective differentiation capacity of the hMSSCs induced in the same manner as in Example 2 into muscle in vivo, hMSSCs were mixed with fibrin glue to which heparin was added and then transplanted into the subcutaneous tissue of an immunodeficient mouse. 7 weeks after the transplantation of hMSSCs, tissue was stained with H&E and the STEM101 antibody (Takara, Japan) binding to the human cell nucleus marker in order to identify whether the differentiated tissue was derived from the hMSSCs. In addition, the differentiated tissue was immunofluorescence staining with an antibody against the muscle marker MyoD (Thermo Fisher Scientific Inc., USA) in order to identify muscle cells. The cell nuclei were counterstained with DAPI. […]

hESCs = test: Differentiation tendency of MSSC medium vs. CM medium (number of differentiations out of 20 observations); type: cell-based, human; conditions: noggin contained, as compared to CM medium
Experimental: The differentiation capacity of a medium (hereinafter, referred to as “CM medium”) obtained by replacing human noggin (Life Technologies), which is the ingredient 1) of the seven ingredients of the MSSC medium of Example 2, with conditioned medium (culture supernatant obtained after culturing CF1 cells for 24 hours using complete medium wherein DMEM/F12 is replaced with knockout DMEM (knockout DMEM supplemented with 20% knockout serum replacement (Invitrogen, USA), 1 mM glutamine, 1% nonessential amino acids (Invitrogen, USA), 0.1 mM β-mercaptoethanol, 0.1% penicillin-streptomycin and 5 mg/mL bovine serum albumin) (the remaining ingredients 2)-7) are the same) was compared with that of the MSSC medium.
Noggin is generally used to maintain the characteristics of hESCs during culturing (Chaturvedi G, Simone P D, Ain R, Soares M J, Wolfe M W. Noggin maintains pluripotency of human embryonic stem cells grown on Matrigel. Cell Prolif. 2009 August; 42(4): 425-33).

Molecule: heparin
- selective differentiation of hMSSCs (hMSSCs): differentiated selectively into muscle only

B1: noggin: human noggin, ingredient 1) of the MSSC medium, 250 ng/mL (protein, UniProt Q13253 28-232, looked up)
Noggin: QHYLHIRPAPSDNLPLVDLIEHPDPIFDPKEKDLNETLLRSLLGGHYDPGFMATSPPEDRPGGGGGAAGGAEDLAELDQLLRQRPSGAMPSEIKGLEFSEGLAQGKKQRLSKKLRRKLQMWLWSQTFCPVLYAWNDLGSRFWPRYVKVGSCFSKRSCSVPEGMVCKPSKSVHLTVLRWRCQRRGGQRCGWIPIQYPIISECKCSC
- increase of tendency of osteogenic differentiation (hESCs): ≥ 10 times
